One may read the IC50 as the concentration that gives 50% inhibition. As a reminder, the bioavailability is dose-corrected exposure relative to a reference, in per cent. One may read the half-life as how long it takes for the measured level to halve. What is called inhibition is the change of the read-out against control, counted positive when it falls.

The source made the active and inactive calls. The rule behind the calls is not given here.

The target in data set [1] is T1, Hepatocyte growth factor receptor (Homo sapiens, UniProt P08581). As to the kind of experiment: biochemical.
Description: Inhibition of GST-fused recombinant c-Met catalytic domain expressed in baculovirus-infected Trichoplusia ni Hi5 cells after 30 mins by DELFIA assay
The target in data set [2] is T1, Hepatocyte growth factor receptor. Particulars: 293t.
Description: Inhibition of TPR-fused Met phosphorylation expressed in human 293T cells by ELISA
Data set [3] concerns the target Vascular endothelial growth factor receptor 2 (Homo sapiens, UniProt P35968). Put plainly: Inhibition of GST-fused recombinant VGFR2 catalytic domain expressed in baculovirus-infected Sf9 cells after 10 mins by DELFIA assay.
Data set [4] is described as follows: Bioavailability in rat at 4.28 to 4.98 mg/kg, po. In kind it is ADME, organism-based. To be noted: in vivo.
Data set [5] is described as follows: Half life in rat at 2.17 to 2.86 mg/kg, iv. In kind it is ADME, organism-based. Set-up: dose 2.17-2.86 mg/kg, route intravenous. Particulars: in vivo.
For data set [6], the target named is Vascular endothelial growth factor receptor 1 (Homo sapiens) (UniProt P17948). As to the kind of experiment: Inhibition of VEGFR1 at 100 nM.
The target in data set [7] is Angiopoietin-1 receptor (Homo sapiens) (UniProt Q02763). As to the kind of experiment: Inhibition of Tie2 at 100 nM.
The target of data set [8] is T2, Aurora kinase A (Homo sapiens) (UniProt O14965).
T2 sequence (whole entry): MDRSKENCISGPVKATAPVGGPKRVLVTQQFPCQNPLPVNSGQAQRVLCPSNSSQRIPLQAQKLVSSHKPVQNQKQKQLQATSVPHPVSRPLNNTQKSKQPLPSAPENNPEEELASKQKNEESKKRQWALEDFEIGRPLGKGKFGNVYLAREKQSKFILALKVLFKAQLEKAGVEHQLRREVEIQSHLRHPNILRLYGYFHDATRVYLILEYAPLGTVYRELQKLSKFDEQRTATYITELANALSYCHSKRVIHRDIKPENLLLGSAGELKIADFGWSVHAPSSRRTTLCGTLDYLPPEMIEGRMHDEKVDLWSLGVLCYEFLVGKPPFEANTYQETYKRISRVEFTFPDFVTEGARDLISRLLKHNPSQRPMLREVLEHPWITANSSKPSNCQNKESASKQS
As to the kind of experiment: Inhibition of Aurora A at 100 nM.

Another data set relates to HOS-TE85. Put plainly: Antiproliferative activity against human MNNG-HOS cells expressing TPR-fused Met after 72 hrs by MTT assay. In kind it is functional, cell-based. To be noted: HOS-TE85, 72 h. On the technique in general: Tetrazolium dyes change colour on reduction, which living cells bring about.
In data set [9] the target is Receptor-type tyrosine-protein kinase FLT3 (Homo sapiens) (UniProt P36888). Put plainly: Inhibition of FLT3 at 100 nM.
The nature of data set [10]: Inhibition of VEGF-dependent ERK phosphorylation.
The subject of data set [11] is HUVEC. As to the kind of experiment: Inhibition of tubule formation in HUVEC assessed as tubule length at 100 nM by angiogenesis assay in presence of VEGF. In kind it is functional. Particulars: Homo sapiens.
In data set [12] the test system is MKN-45. As to the kind of experiment: Antitumor activity against human MKN45 cells xenografted in mouse assessed as regression of tumor growth at 40 mg/kg, po administered once daily for 12 days. Set-up: dose 40 mg/kg. In kind it is functional, organism-based. (A xenograft is tissue or cells of one species grown in another, often human tumour cells in immunodeficient mice.)

Data set [13] has as its system MKN-45. As to the kind of experiment: Antiproliferative activity against human MKN45 cells expressing c-Met after 72 hrs by MTT assay. In kind it is functional, cell-based. Particulars: MKN-45, 72 h.
The subject of the next data set is MDA-MB-231. As to the kind of experiment: Antiproliferative activity against c-Met-independent human MDA-MB-231 cells after 72 hrs by MTT assay. In kind it is functional, cell-based. Particulars: MDA-MB-231, 72 h.
The target in data set [14] is Macrophage-stimulating protein receptor (Homo sapiens) (UniProt Q04912). As to the kind of experiment: Inhibition of Ron at 100 nM.
The test system of another data set is HCT-116. Put plainly: Antiproliferative activity against c-Met-independent human HCT116 cells after 72 hrs by MTT assay. In kind it is functional, cell-based. To be noted: HCT-116, 72 h.
Data set [15] deals with HUVEC. As to the kind of experiment: Inhibition of tubule growth in HUVEC by angiogenesis assay. In kind it is functional, cell-based. To be noted: Homo sapiens.
In data set [16] the target is Vascular endothelial growth factor receptor 3 (Homo sapiens) (UniProt P35916). Put plainly: Inhibition of VEGFR3 at 100 nM.
For data set [17], the system named is HUVEC. As to the kind of experiment: Inhibition of VEGF-dependent proliferation in HUVEC. In kind it is functional, cell-based. Particulars: Homo sapiens.

Regarding `CCn1ccnc1-c1cc2nccc(Oc3ccc(NC(=O)N4CCN(c5ccccc5)C4=O)cc3F)c2s1`, the IC50 stood at 24 nM in data set [1], 140 nM in data set [2] and 26 nM in data set [3].

For the compound `Cn1cnc(-c2cc3nccc(Oc4ccc(NC(=O)CC(=O)Nc5ccccc5)cc4F)c3s2)c1`, the IC50 was found to be 28 nM in data set [1], 310 nM in [2] and 15 nM in data set [3].

Regarding `O=C(Nc1ccc(Oc2ccnc3cc(-c4ccc(CN5CCNCC5)cc4)sc23)c(F)c1)N1CCN(c2ccccc2)C1=O`, the half-maximal inhibitory concentration (IC50) was 22 nM in [1], 420 nM in data set [2] and 11 nM in [3].

`Cn1cnc(-c2cc3nccc(Oc4ccc(NC(=S)N5CCN(c6ccccc6)C5=O)cc4F)c3s2)c1`: the IC50 in data set [1] is 24 nM; in data set [2], 80 nM; in data set [3] it was 12 nM.

Take `Cn1cnc(-c2cc3nccc(Oc4ccc(NC(=O)N5CCN(c6ccccc6)C5=S)cc4F)c3s2)c1`: the IC50 in data set [1] was 2000 nM; in [2] it was more than 10000 nM; in data set [3] it was 1800 nM.

For `CN(C(=O)CC(=O)Nc1ccc(Oc2ccnc3cc(-c4cn(C)cn4)sc23)c(F)c1)c1ccccc1`, the half-maximal inhibitory concentration (IC50) in data set [1] turned out to be 43 nM; in [2], 160 nM; in data set [3] it was 10 nM.

`CN(C)[C@H]1CCN(C(=O)c2cc3nccc(Oc4ccc(NC(=O)N5CCN(c6ccccc6)C5=O)cc4F)c3s2)C1`: the IC50 in [1] was 42 nM; in data set [2] it was 230 nM; in [3], 23 nM.

Consider `CCn1cnc(-c2cc3nccc(Oc4ccc(NC(=O)N5CCN(c6ccccc6OC)C5=O)cc4F)c3s2)c1`, for which the results for the IC50 in data set [1], in [2] and in [3] were 26 nM, 60 nM and 14 nM, respectively.

Turning to `CC(=O)c1cccc(-c2cc3nccc(Oc4ccc(NC(=O)N5CCN(c6ccccc6)C5=O)cc4F)c3s2)c1`, the IC50 in data set [1] was 200 nM; in [2], 270 nM; in data set [3], 880 nM.

Turning to `Cn1cnc(-c2cc3nccc(Oc4ccc(NC(=O)N5CCN(c6ccccc6)C5=O)cc4F)c3s2)c1`, in [4], the bioavailability came out at 13%. Also, in data set [3], the half-maximal inhibitory concentration (IC50) was 8 nM. Besides, the half-life in [5] is 2.3 h.

`Cn1cnc(-c2cc3nccc(Oc4ccc(NC(=O)C5(C)CCN(c6ccccc6)C5=O)cc4F)c3s2)c1` (stereo not drawn): the IC50 came out at 67 nM in [1], 1000 nM in data set [2] and 230 nM in [3].

On to `Cn1cnc(-c2cc3nccc(Oc4ccc(NC(=S)NC(=O)Cc5ccccc5)cc4F)c3s2)c1`, for which, in data set [3], the IC50 was determined as 26 nM. The half-life in data set [5] is 1.2 h.

Consider `CN1CCN(CCN(C)Cc2ccc(-c3cc4nccc(Oc5ccc(NC(=O)N6CCN(c7ccccc7)C6=O)cc5F)c4s3)cc2)CC1`, for which the IC50 in data set [1] was determined as 28 nM; in [2], 830 nM; in data set [3], 3 nM.

On to `CN(C(=O)C1(C(=O)Nc2ccc(Oc3ccnc4cc(-c5cn(C)cn5)sc34)c(F)c2)CC1)c1ccccc1`, for which the IC50 in data set [1] amounted to 1000 nM; in data set [2] it was 1440 nM; in data set [3], 57 nM.

On to `CCn1cnc(-c2cc3nccc(Oc4ccc(NC(=O)N5CCN(c6ccccc6F)C5=O)cc4F)c3s2)c1`, for which the IC50 in data set [1] was determined as 21 nM; in [2], 100 nM; in data set [3], 3 nM.

`CN1CCN(Cc2ccc(-c3cc4nccc(Oc5ccc(NC(=O)N6CCN(c7ccccc7)C6=O)cc5F)c4s3)cc2)CC1`: the IC50 amounted to 29 nM in data set [1], 250 nM in [2] and 12 nM in data set [3].

Turning to `Cn1ccnc1-c1cc2nccc(Oc3ccc(NC(=O)N4CCN(c5ccccc5)C4=O)cc3F)c2s1`, the IC50 in [1] was found to be 26 nM; in [2], 120 nM; in data set [3], 31 nM.

As for `O=C(Nc1ccc(Oc2ccnc3cc(-c4cn(CCCN5CCCC5)cn4)sc23)c(F)c1)N1CCN(c2ccccc2)C1=O`, the IC50 in [1] is 21 nM; in [2], 300 nM; in data set [3], 8 nM.

As for `Cn1cnc(-c2cc3nccc(Oc4ccc(NC(=O)C5CCN(c6ccccc6)C5=O)cc4F)c3s2)c1` (stereo not drawn), the IC50 came out at 35 nM in data set [1], 370 nM in [2] and 39 nM in [3]. The compound further registered a bioavailability in [4] of 14%. In data set [5], this compound showed a half-life of 1.1 h.

For `Cn1cnc(-c2cc3nccc(Oc4ccc(NC(=O)C5(C(=O)Nc6ccccc6)CC5)cc4F)c3s2)c1`, the IC50 turned out to be 28 nM in data set [1], 60 nM in [2] and 9 nM in data set [3].

For `CN(C)CCn1cnc(-c2cc3nccc(Oc4ccc(NC(=O)N5CCN(c6ccccc6)C5=O)cc4F)c3s2)c1`, the values for the IC50 in data set [1], in [2] and in [3] were 34 nM, 60 nM and 14 nM, respectively.

In the case of `O=C(Nc1ccc(Oc2ccnc3cc(-c4cn(CCN5CCCC5)cn4)sc23)c(F)c1)N1CCN(c2ccccc2)C1=O`, the 50% inhibitory concentration (IC50) in data set [1] was 35 nM; in [2], 320 nM; in data set [3] it was 20 nM.

Take `CC(C)n1cnc(-c2cc3nccc(Oc4ccc(NC(=O)C5CCN(c6ccccc6)C5=O)cc4F)c3s2)c1` (stereo not drawn): the IC50 in [1] turned out to be 39 nM; in [2] it was 210 nM; in data set [3] it was 16 nM.

In the case of `CC(C)n1cnc(-c2cc3nccc(Oc4ccc(NC(=O)C5CC(=O)N(c6ccccc6)C5)cc4F)c3s2)c1` (stereo not drawn), the IC50 in data set [1] amounted to 300 nM; in data set [3] it was 800 nM.

Consider `CNC(=O)N1CCN(Cc2ccc(-c3cc4nccc(Oc5ccc(NC(=O)N6CCN(c7ccccc7)C6=O)cc5F)c4s3)cc2)CC1`, for which the IC50 in data set [1] amounted to 16 nM; in [2], 80 nM; in data set [3], 8 nM.

`CCn1cnc(-c2cc3nccc(Oc4ccc(NC(=O)N5CCN(c6ccccc6)C5=O)cc4F)c3s2)c1`: the IC50 in [1] came out at 25 nM; in data set [2], 40 nM; in [3], 12 nM.

On to `Cn1cnc(-c2cc3nccc(Oc4ccc(NC(=O)NC(=O)Cc5ccccc5)cc4F)c3s2)c1`, for which the results for the IC50 in [1] and in data set [3] were 25 nM and 37 nM, respectively.

As to `CCn1cnc(-c2cc3nccc(Oc4ccc(NC(=O)N5CCN(c6ccc(F)cc6)C5=O)cc4F)c3s2)c1`, the inhibition in data set [6] is 99%; in [7], 99%; in data set [8] it was 9%; in data set [9], 80%; in data set [14], 100%; in [16] it was 99%. Further, the IC50 with HOS-TE85 was found to be 33 nM; in data set [10] it was 1 nM; in [1] it was 27 nM; in the data set on MKN-45 [13] it was 10 nM; with MDA-MB-231 it was 20000 nM; with HCT-116, 13000 nM. Moreover, the half-maximal inhibitory concentration (IC50) is 6 nM with HUVEC [15], 50 nM in [2], 7 nM in data set [3] and 6 nM in the data set on HUVEC [17]. The inhibition at 0.1 µM with HUVEC [11] came to 98%. Also, the outcome with MKN-45 [12] was Active. The bioavailability in [4] came to 37%. In [5], this compound showed a half-life of 6.3 h.

In the case of `CN1CC=C(c2cc3nccc(Oc4ccc(NC(=O)N5CCN(c6ccccc6)C5=O)cc4F)c3s2)CC1`, the IC50 in [1] came out at 33 nM; in data set [2] it was 300 nM; in [3], 170 nM.

These data come from ChEMBL document CHEMBL1153284, “N-(3-fluoro-4-(2-arylthieno[3,2-b]pyridin-7-yloxy)phenyl)-2-oxo-3-phenylimidazolidine-1-carboxamides: a novel series of dual c-Met/VEGFR2 receptor tyrosine kinase inhibitors” (Bioorg Med Chem Lett, 2009).
